This is an account of results in PMC4425855, “Novel pantothenate derivatives for anti-malarial chemotherapy” (Malaria Journal, 2015).

Where two headings read alike, the source gives them in different places. Some results are limits rather than exact numbers.

In assay [1] the test system is asexual NF54 strain P. falciparum. The assay can be described thus: Plasmodium falciparum asexual blood stages proliferation assay with SYBR Green read-out. It is filed as cell-based. The following applies: for IC50 / anti-malarial activity (in words): compound alone, 10% human serum; for IC50: NF54 asexual blood stages, 72 hours, relative to DHA control, read-out: Anti-malarial activity IC50; for anti-malarial activity (in words): highest concentration tested 100 μM; for change of anti-malarial potency upon vanin inhibition: combined with 5 μM of vanin inhibitor CXP14.1-060. Here is the method: The asexual stages of the NF54 strain P. falciparum were cultured as previously described, utilizing a shaker system with automated media change twice a day, parasites were kept in continuous culture within adapted Erlenmeyer flasks. Erythrocytes were refreshed every two or three days to adjust haematocrit to 5% and parasitaemia to 0.5%. Human erythrocytes (blood type A) were obtained from healthy blood donors, with no history of malaria. Culture media consisted of RPMI 1640 with HEPES [5.94 g/l, hypoxanthine [0.05 g/l], 10% (v/v) pooled human serum (blood type A) obtained similarly to erythrocytes, and 0,2% (w/v) sodium bicarbonate. Temperature was set to 37°C and a low oxygen gas mixture was constantly flushed over the culture maintaining a stable atmosphere of 3% O2, 4% CO2, and 93% N2.
A non-synchronous asexual NF54 strain P. falciparum culture was adjusted to a parasitaemia of 0.5-1% and a haematocrit of 1-5%. The compound dilution curves were prepared in dimethylsulphoxide (DMSO) from 100 mM to 10 μM at half/log step dilutions. The established anti-malarial dihydroartemisinin (DHA) was used as a positive control and diluted in DMSO from 1 mM to 100 nM at half/log step dilutions. The DMSO dilutions were 500-fold diluted in growth medium to yield a final DMSO concentration of 0.2% (v/v), and final compound concentrations from 200 μM to 20 nM (2 μM to 200 pM for DHA). Higher concentrations for the experimental compounds would not have been possible to achieve due to limitations in final DMSO concentration (0.1% v/v). Fifty μl of each compound dilution was combined with 50 μl of parasite culture in a black, clear-bottomed or entirely black 96-well plate. The outermost wells were filled with sterile water to prevent evaporation. DHA at a concentration of 1 μM and 0.1% DMSO (negative control) were used to determine the assay window. The 96-well plates were incubated for 72 hours in a candle jar at 37°C. Read-out was done using the DNA-marker SYBR Green as described previously. All assays were conducted at least in triplicate.
When combining two compounds in the same well the conditions were otherwise similar to the single compound assays, however the final DMSO concentration was 0.2%, which was also adjusted for the positive and negative controls and was not found to cause differences in results obtained with single compounds in assay containing 0.1% DMSO. The pantothenamide phenethyl-Pan was combined with a 10^−7 to 10^−5 M concentration curve of CXP14.1-060; the other pantothenamides were combined only with a 5 μM concentration of the same vanin inhibitor. The pantothenone vanin inhibitor RR8 was additionally combined with 20 μM, 6.3 μM, 2.0 μM, and 0.6 μM of pantothenate to explore potential competition for the same molecular target in P. falciparum. All assays were conducted at least in triplicate.
Statistical analyses were performed using GraphPad Prism 5. This includes producing inhibition curves, normalizing them to percentage of inhibition, calculation of IC50 values, correlation coefficients (Spearman non-parametric correlation), and Schild analyses. The IC50 is the concentration of the compound in question at which the compound reaches 50% inhibition relative to the DHA control curve, and is calculated using the interpolate function in GraphPad Prism 5.

In assay [2] the target is T1, vanin enzymatic activity in human serum (Homo sapiens, UniProt O95497).
T1 sequence (O95497 22-491): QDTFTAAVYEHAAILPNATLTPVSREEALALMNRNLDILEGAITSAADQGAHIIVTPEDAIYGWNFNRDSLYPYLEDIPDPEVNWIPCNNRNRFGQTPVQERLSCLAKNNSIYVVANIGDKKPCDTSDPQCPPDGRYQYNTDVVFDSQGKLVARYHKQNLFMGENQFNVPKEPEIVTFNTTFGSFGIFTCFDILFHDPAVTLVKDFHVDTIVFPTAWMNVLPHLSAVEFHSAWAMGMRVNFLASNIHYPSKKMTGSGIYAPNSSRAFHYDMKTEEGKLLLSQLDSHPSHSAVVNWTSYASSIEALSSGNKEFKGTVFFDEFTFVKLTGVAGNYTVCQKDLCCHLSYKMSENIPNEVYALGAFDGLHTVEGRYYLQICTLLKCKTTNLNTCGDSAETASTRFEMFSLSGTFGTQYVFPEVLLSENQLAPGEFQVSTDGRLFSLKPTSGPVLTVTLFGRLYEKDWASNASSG
As to the kind of experiment: Vanin/pantetheinase activity assay with AMC substrate and fluorescence readout. Type of assay: biochemical.

In another assay the test system is P. falciparum. Also noted: method as in PMID 23405100. Conditions: 'aged' medium; cited from earlier work.
The mark [3] stands for this setting: Plasmodium falciparum, NF54, 72 h.

For `CC(C)(CO)[C@@H](O)C(=O)N/C=C/C(=O)O` [CJ-15,801], the IC50 (commonly the concentration needed to halve the response being measured) in assay [1] (setting [3]) is above 100 µM. Further, the “anti-malarial activity (in words)” value in assay [1] is “poor inhibitor of P. falciparum growth”.
As to `CC(C)(CO)[C@@H](O)C(=O)NCCC(O)Cc1ccccc1` (stereo partly shown) [CXP14.1-034], in assay [1] (setting [3]), the IC50 was found to be 24.1 µM.
`CC(C)(C)c1ccc(CC(=O)CCNC(=O)[C@H](O)C(C)(C)CO)cc1` [CXP14.1-060]: the IC50 in assay [1] (setting [3]) is above 100 µM. Further, the “anti-malarial activity (in words)” value in assay [1] is reported as “no anti-malarial activity”. For the same compound, the “potency against human vanins (in words)” value in assay [2] is given as “nanomolar potency”.
Consider `C[C@H]1[C@@H](O)O[C@@H]2O[C@@]3(C)CC[C@H]4[C@H](C)CC[C@@H]1[C@@]24OO3` [DHA, dihydroartemisinin], for which the “change of anti-malarial potency upon vanin inhibition” value in assay [1] was “did not change”. In assay [1] (reference compound), the “Anti-malarial IC50 (in words)” value is listed as “low nanomolar range”.
For `CCCCCNC(=O)CCNC(=O)[C@H](O)C(C)(C)CO` [N5-Pan], the IC50 in assay [1] (setting [3]) was at least 50 µM. Besides, in assay [1], the “change of anti-malarial potency upon vanin inhibition” value is given as “increased” and the IC50 was 45.1 µM.
`CCCCCCCNC(=O)CCNC(=O)[C@H](O)C(C)(C)CO` [N7-Pan]: the IC50 in assay [1] (setting [3]) was at least 50 µM; in assay [1], 79 µM. In addition, in assay [1], the “change of anti-malarial potency upon vanin inhibition” value is on record as “increased”.
`CCCCCCCCCNC(=O)CCNC(=O)[C@H](O)C(C)(C)CO` [N9-Pan]: the IC50 in assay [1] (setting [3]) was around 15 µM. Further, in assay [1], the “change of anti-malarial potency upon vanin inhibition” value was “not increased” and the IC50 came out at 14.6 µM.
Consider `CC(C)(CO)[C@@H](O)C(=O)NCCCO` [Pantothenol], for which, in assay [1] (setting [3]), the IC50 is above 100 µM. The “anti-malarial activity (in words)” value in assay [1] is “no anti-malarial activity”.
Consider `CC(C)(CO)[C@@H](O)C(=O)NCCC(=O)NCCc1ccccc1` [Phenethyl-Pan], for which the IC50 in assay [1] (setting [3]) is at least 50 µM; in assay [1] it was 98.2 µM; in the assay on P. falciparum it was 0.02 µM. The “efficacy of parasite growth inhibition” value in assay [1] (in the presence of 10 μM of vanin inhibitor CXP14.1-060, comparable to DHA) is “full inhibition of parasite growth”.
On to `C=CCCC(=O)CCNC(=O)[C@H](O)C(C)(C)CO` [RR2], for which the IC50 in assay [1] (setting [3]) is 2.6 µM.
For the compound `CC(C)(CO)[C@@H](O)C(=O)NCCC(=O)CCc1ccccc1` [RR7], the IC50 in assay [1] (setting [3]) is 7.7 µM.
`CC(C)(CO)[C@@H](O)C(=O)NCCC(=O)CCCc1ccccc1` [RR8]: the IC50 in assay [1] (setting [3]) amounted to 2.2 µM. Besides, the “slope of the line in the Schild Plot” value in assay [1] (RR8 dilution curve combined with 20 μM, 6.3 μM, 2.0 μM and 0.6 μM of pantothenate) stood at 1.087 ± 0.089. In assay [1] (addition of increasing concentrations of pantothenate), the “shift of IC50 on addition of pantothenate” value is listed as “increase in the IC50”.
As to `CC(C)(CO)[C@@H](O)C(=O)NCCC(=O)c1ccccc1` [SN 12,601], the IC50 in assay [1] (setting [3]) was 6.1 µM. For the same compound, the “anti-malarial activity (in words)” value in assay [1] was “moderate activity”.
Consider `CC(C)(CO)[C@@H](O)C(=O)NCCS(=O)(=O)Nc1ccccc1` [SN 14,621], for which the IC50 in assay [1] (setting [3]) is 33.6 µM. Further, the “anti-malarial activity (in words)” value in assay [1] is reported as “moderate activity”.
`CC(C)(CO)[C@@H](O)C(=O)NCCS(=O)(=O)Nc1ccc(Cl)cc1` [SN 14,622]: in assay [1] (setting [3]), the IC50 turned out to be 7.4 µM. For the same compound, in assay [1], the “anti-malarial activity (in words)” value is on record as “moderate activity”.
